Reference: patent publication US20240300932A1, “N-PHENYLIMINE DERIVATIVE AND PREPARATION METHOD AND USE THEREOF” (Guizhou University, priority 2023, published 2024)

Assays:
Assay in all cases: Post-emergence herbicidal activity test (stem and leaf spray, pot culture)
Assay type in all cases: in vivo
Details in all cases: 3 weeks after spraying
Amaranthus retroflexus = test system: Amaranthus retroflexus
Procedure: (§1) The weeds were cultivated in a 180 mm×140 mm plastic nutrient pot by a pot-culture method, placed in an enamel tray, and the plastic nutrient pots were filled with surface soil (⅘ of a depth) collected from a farmland and air-dried and sieved, and a soil humidity was controlled at 20% in the initial stage. Weed seeds with plump and uniform grains were selected, soaked in warm water at 25° C. for 6 h, and germinated in a biochemical incubator (dark) at 28° C. The freshly exposed weed seeds were evenly placed on the soil surface, and then covered with 0.5 cm to 1 cm of soil according to the size of the seeds. The weeds are cultivated in a controlled sunlight greenhouse at 20° C. to 30° C., under natural light, and a relative humidity of 57% to 72%. The soil was loam, including 1.63% of organic matters, with a pH value of 7, 84.3 mg/kg of alkaline nitrogen, 38.5 mg/kg of available phosphorus, and 82.1 mg/kg of available potassium.
(§2) Each treatment was repeated 2 times, each treatment included 12 pots, and 20 weed seeds were sown in each pot. Pesticide was applied in the test for 1 time in total. When the weeds grew to 1.5- to 2-leaf stage, thinning was conducted, with 10 weeds in each pot, and 30 weeds were kept in each treatment.
(§3) The cultivated weeds were placed on trays with an area of 0.1 m^2, and stems and leaves were sprayed with a sprayer. After applying a pesticide, the pesticide applied weeds were moved into a greenhouse for routine cultivation.
(§4) 2 weeks after sowing, the test plants were treated at the 2- to 3-leaf stage: the compounds of the present disclosure for testing were dissolved in acetone separately, and added with Tween 80, an emulsifiable oil of 1.5 liters/ha methyl oleate was added as a synergist, and an obtained mixture was diluted with certain water to a certain concentration solution. The solution was sprayed onto the plants using a spray tower. After spraying, the weeds were cultivated in the greenhouse for 3 weeks, and the experimental effects on the weeds were counted. The effective concentrations of the compounds were 10 g/mu, 5 g/mu, and 2.5 g/mu, the experiment was repeated three times, and an average result was taken.
(§5) The activity level criteria for plant destruction (i.e. growth control rate) are as follows: • Grade 5: the growth control rate is greater than or equal to 85%; • Grade 4: the growth control rate is greater than or equal to 60% and less than 85%; • Grade 3: the growth control rate is greater than or equal to 40% and less than 60%; • Grade 2: the growth control rate is greater than or equal to 20% and less than 40%; • Grade 1: the growth control rate is greater than or equal to 5% and less than 20%; and • Grade 0: the growth control rate is less than 5%.
(§6) The growth control rate is a fresh weight control rate.

Echinochloa crusgalli = test system: Echinochloa crusgalli
Procedure: as §1, §2, §3, §4, §5, §6

Portulaca oleracea = test system: Portulaca oleracea
Procedure: as §1, §2, §3, §4, §5, §6

Setaria viridis = test system: Setaria viridis
Procedure: as §1, §2, §3, §4, §5, §6

Abutilon theophrasti = test system: Abutilon theophrasti
Procedure: as §1, §2, §3, §4, §5, §6

Trifoliumre pensL. = test system: Trifoliumre pensL.
Procedure: (1) Post-Emergence Stem and Leaf Spray Treatment: The weeds were cultivated in a 180 mm×140 mm plastic nutrient pot by a pot-culture method, placed in an enamel tray, and the plastic nutrient pots were filled with surface soil (⅘ of a depth) collected from a farmland and air-dried and sieved, and a soil humidity was controlled at 20% in the initial stage. Weed seeds with plump and uniform grains were selected, soaked in warm water at 25° C. for 6 h, and germinated in a biochemical incubator (dark) at 28° C. The freshly exposed weed seeds were evenly placed on the soil surface, and then covered with 0.5 cm to 1 cm of soil according to the size of the seeds. The weeds are cultivated in a controlled sunlight greenhouse at 20° C. to 30° C., under natural light, and a relative humidity of 57% to 72%. The soil was loam, including 1.63% of organic matters, with a pH value of 7, 84.3 mg/kg of alkaline nitrogen, 38.5 mg/kg of available phosphorus, and 82.1 mg/kg of available potassium. Each treatment was repeated 2 times, each treatment included 12 pots, and 20 weed seeds were sown in each pot. Pesticide was applied in the test for 1 time in total. When the weeds grew to 1.5- to 2-leaf stage, thinning was conducted, with 10 weeds in each pot, and 30 weeds were kept in each treatment. The cultivated weeds were placed on trays with an area of 0.1 m^2, and stems and leaves were sprayed with a sprayer. After applying a pesticide, the pesticide applied weeds were moved into a greenhouse for routine cultivation. 2 weeks after sowing, the test plants were treated at the 2- to 3-leaf stage: the compounds of the present disclosure for testing were dissolved in acetone separately, and added with Tween 80, an emulsifiable oil of 1.5 liters/ha methyl oleate was added as a synergist, and an obtained mixture was diluted with certain water to a certain concentration solution. The solution was sprayed onto the plants using a spray tower. After spraying, the weeds were cultivated in the greenhouse for 3 weeks, and the experimental effects on the weeds were counted. The effective concentrations of the compounds were 10 g/mu, 5 g/mu, and 2.5 g/mu, the experiment was repeated three times, and an average result was taken.

Structure (SMILES) | Post-emergence herbicidal activity, A. retroflexus (grade) (Amaranthus retroflexus; dosage 2.5 g/mu) | Post-emergence herbicidal activity, A. retroflexus (grade) (Amaranthus retroflexus; dosage 5 g/mu) | Post-emergence herbicidal activity, A. retroflexus (grade) (Amaranthus retroflexus; dosage 10 g/mu) | Post-emergence herbicidal activity, E. crusgalli (grade) (Echinochloa crusgalli; dosage 2.5 g/mu) | Post-emergence herbicidal activity, E. crusgalli (grade) (Echinochloa crusgalli; dosage 5 g/mu) | Post-emergence herbicidal activity, E. crusgalli (grade) (Echinochloa crusgalli; dosage 10 g/mu) | Post-emergence herbicidal activity, P. oleracea (grade) (Portulaca oleracea; dosage 2.5 g/mu) | Post-emergence herbicidal activity, P. oleracea (grade) (Portulaca oleracea; dosage 5 g/mu) | Post-emergence herbicidal activity, P. oleracea (grade) (Portulaca oleracea; dosage 10 g/mu) | Post-emergence herbicidal activity, S. viridis (grade) (Setaria viridis; dosage 2.5 g/mu) | Post-emergence herbicidal activity, S. viridis (grade) (Setaria viridis; dosage 5 g/mu) | Post-emergence herbicidal activity, S. viridis (grade) (Setaria viridis; dosage 10 g/mu) | Post-emergence herbicidal activity, A. theophrasti (grade) (Abutilon theophrasti; dosage 2.5 g/mu) | Post-emergence herbicidal activity, A. theophrasti (grade) (Abutilon theophrasti; dosage 5 g/mu) | Post-emergence herbicidal activity, A. theophrasti (grade) (Abutilon theophrasti; dosage 10 g/mu) | Post-emergence herbicidal activity, Trifoliumre pensL. (grade) (Trifoliumre pensL.; dosage 2.5 g/mu) | Post-emergence herbicidal activity, Trifoliumre pensL. (grade) (Trifoliumre pensL.; dosage 5 g/mu) | Post-emergence herbicidal activity, Trifoliumre pensL. (grade) (Trifoliumre pensL.; dosage 10 g/mu)
O=C1C2=C(CCCC2)C(=O)N1c1cc(OCc2nc(-c3ccccc3Cl)no2)c(Cl)cc1F [Compound A8] | 5 (Grade 5: the growth control rate is greater than or equal to 85%) | 5 (Grade 5: the growth control rate is greater than or equal to 85%) | 5 (Grade 5: the growth control rate is greater than or equal to 85%) | 1 (Grade 1: the growth control rate is greater than or equal to 5% and less than 20%) | 2 (Grade 2: the growth control rate is greater than or equal to 20% and less than 40%) | 3 (Grade 3: the growth control rate is greater than or equal to 40% and less than 60%) | 4 (Grade 4: the growth control rate is greater than or equal to 60% and less than 85%) | 5 (Grade 5: the growth control rate is greater than or equal to 85%) | 5 (Grade 5: the growth control rate is greater than or equal to 85%) | 2 (Grade 2: the growth control rate is greater than or equal to 20% and less than 40%) | 3 (Grade 3: the growth control rate is greater than or equal to 40% and less than 60%) | 4 (Grade 4: the growth control rate is greater than or equal to 60% and less than 85%) | 5 (Grade 5: the growth control rate is greater than or equal to 85%) | 5 (Grade 5: the growth control rate is greater than or equal to 85%) | 5 (Grade 5: the growth control rate is greater than or equal to 85%) | 4 (Grade 4: the growth control rate is greater than or equal to 60% and less than 85%) | 5 (Grade 5: the growth control rate is greater than or equal to 85%) | 5 (Grade 5: the growth control rate is greater than or equal to 85%)
Cc1ccc(-c2noc(COc3cc(N4C(=O)C5=C(CCCC5)C4=O)c(F)cc3Cl)n2)c(F)c1 [Compound A9] | 5 (Grade 5: the growth control rate is greater than or equal to 85%) | 5 (Grade 5: the growth control rate is greater than or equal to 85%) | 5 (Grade 5: the growth control rate is greater than or equal to 85%) | 1 (Grade 1: the growth control rate is greater than or equal to 5% and less than 20%) | 2 (Grade 2: the growth control rate is greater than or equal to 20% and less than 40%) | 3 (Grade 3: the growth control rate is greater than or equal to 40% and less than 60%) | 4 (Grade 4: the growth control rate is greater than or equal to 60% and less than 85%) | 5 (Grade 5: the growth control rate is greater than or equal to 85%) | 5 (Grade 5: the growth control rate is greater than or equal to 85%) | 2 (Grade 2: the growth control rate is greater than or equal to 20% and less than 40%) | 3 (Grade 3: the growth control rate is greater than or equal to 40% and less than 60%) | 4 (Grade 4: the growth control rate is greater than or equal to 60% and less than 85%) | 5 (Grade 5: the growth control rate is greater than or equal to 85%) | 5 (Grade 5: the growth control rate is greater than or equal to 85%) | 5 (Grade 5: the growth control rate is greater than or equal to 85%) | 4 (Grade 4: the growth control rate is greater than or equal to 60% and less than 85%) | 5 (Grade 5: the growth control rate is greater than or equal to 85%) | 5 (Grade 5: the growth control rate is greater than or equal to 85%)
O=C1C2=C(CCCC2)C(=O)N1c1cc(OCc2nc(-c3cnc(C(F)(F)F)cc3Cl)no2)c(Cl)cc1F [Compound A10] | 5 (Grade 5: the growth control rate is greater than or equal to 85%) | 5 (Grade 5: the growth control rate is greater than or equal to 85%) | 5 (Grade 5: the growth control rate is greater than or equal to 85%) | 1 (Grade 1: the growth control rate is greater than or equal to 5% and less than 20%) | 2 (Grade 2: the growth control rate is greater than or equal to 20% and less than 40%) | 3 (Grade 3: the growth control rate is greater than or equal to 40% and less than 60%) | 4 (Grade 4: the growth control rate is greater than or equal to 60% and less than 85%) | 5 (Grade 5: the growth control rate is greater than or equal to 85%) | 5 (Grade 5: the growth control rate is greater than or equal to 85%) | 2 (Grade 2: the growth control rate is greater than or equal to 20% and less than 40%) | 3 (Grade 3: the growth control rate is greater than or equal to 40% and less than 60%) | 4 (Grade 4: the growth control rate is greater than or equal to 60% and less than 85%) | 5 (Grade 5: the growth control rate is greater than or equal to 85%) | 5 (Grade 5: the growth control rate is greater than or equal to 85%) | 5 (Grade 5: the growth control rate is greater than or equal to 85%) | 4 (Grade 4: the growth control rate is greater than or equal to 60% and less than 85%) | 5 (Grade 5: the growth control rate is greater than or equal to 85%) | 5 (Grade 5: the growth control rate is greater than or equal to 85%)
